{
  "source": "patent US20070264679A1",
  "about": "“Method for analyzing the activity of lipoxygenase using a water-soluble substrate” (Chungnam National University Industry Collaboration …, priority 2006, published 2007)",
  "target": "T1, soybean LOX-1 (Glycine max, UniProt P08170)",
  "T1 construct": "purchased Sigma-Aldrich Corp (St. Louis, Mo., USA) lipoxidase Type I-B",
  "T1 sequence (P08170 1-839)": "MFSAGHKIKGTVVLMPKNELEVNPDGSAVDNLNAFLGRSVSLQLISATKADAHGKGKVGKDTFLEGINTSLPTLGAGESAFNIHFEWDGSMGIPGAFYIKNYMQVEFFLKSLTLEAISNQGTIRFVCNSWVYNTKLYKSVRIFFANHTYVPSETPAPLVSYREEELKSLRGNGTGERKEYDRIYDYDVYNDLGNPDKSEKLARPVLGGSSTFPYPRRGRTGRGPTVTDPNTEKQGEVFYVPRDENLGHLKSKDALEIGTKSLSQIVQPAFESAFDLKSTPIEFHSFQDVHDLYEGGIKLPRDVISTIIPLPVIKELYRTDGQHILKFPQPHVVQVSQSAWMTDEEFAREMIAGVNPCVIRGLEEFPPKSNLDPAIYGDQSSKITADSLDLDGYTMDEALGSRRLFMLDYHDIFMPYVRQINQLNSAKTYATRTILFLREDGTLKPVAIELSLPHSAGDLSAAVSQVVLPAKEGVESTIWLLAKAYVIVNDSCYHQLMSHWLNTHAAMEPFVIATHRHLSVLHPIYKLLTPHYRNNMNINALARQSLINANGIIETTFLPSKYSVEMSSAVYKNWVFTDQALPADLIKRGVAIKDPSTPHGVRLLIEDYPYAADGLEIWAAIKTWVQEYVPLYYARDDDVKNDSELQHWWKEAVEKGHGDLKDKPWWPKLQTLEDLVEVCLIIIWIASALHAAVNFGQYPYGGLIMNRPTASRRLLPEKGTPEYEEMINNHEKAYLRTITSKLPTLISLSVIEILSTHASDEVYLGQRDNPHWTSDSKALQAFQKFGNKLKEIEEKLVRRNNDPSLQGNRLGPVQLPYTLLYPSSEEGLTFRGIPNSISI",
  "assay": "Kinetics of oxygenation of arachidonic acid or arachidonoyl-lysophospholipids by soybean LOX-1",
  "type": "biochemical",
  "settings": "soybean LOX-1 2.5 units/ml; for Km: 50 mM borax buffer pH 9.0, 25° C.; for Vm: 50 mM borax buffer pH 9.0, unit = one nanomole conjugated diene per min",
  "protocol": "Activities of various LOXs were monitored by measuring the increase in absorbance at 234 nm due to the formation of hydroperoxide (ε234=25,000 M^−1 cm^−1) at 25° C. as described before (Smith et al, J. Biol. Chem. 247 (1972) 1038-1047). One unit is defined as the amount of LOXs that can produce one nanomole of conjugated diene per min. The reaction mixture (500 μl) included reticulocyte LOX (2 units/ml) in 50 mM phosphate buffer (pH 7.4), porcine leukocyte LOX (1 unit/ml) in 100 mM phosphate buffer (pH 7.5) containing 5 mM EDTA and 0.03% Tween 20, or soybean LOX-1 (2.5 units/ml) in 50 mM borax buffer (pH 9.0) at 25° C. The reactions were started by including each substrate (100 μM) into the above reaction mixture.\nReticulocyte LOX (2 units/ml), leukocyte LOX (1 units/ml) or soybean LOX-1 (2.5 units/ml) was incubated with each arachidonoyl derivative substrate of various concentrations as described above. The values of kinetic parameters were obtained according to Lineweaver Burke plot analyses as described before (Barroso et al, J. Chromatogr. B. Analyt. Technol. Biomed. Life. Sci. 814 (2005) 21-28).",
  "data": [
    {"molecule": "CCCCC/C=C\\C/C=C\\C/C=C\\C/C=C\\CCCC(=O)OCC(O)COP(=O)([O-])OCC[N+](C)(C)C", "note": "(stereo not shown) [Arachidonoyl-lysoPC, 1-Arachidonoyl lysophosphatidylcholine]", "values": [
      {"measurement": "Km", "value": "5.37 ± 1.6", "unit": "µM"},
      {"measurement": "Km", "setting": "listed as arachidonoyl-lysoPC", "value": 5.4, "unit": "µM"},
      {"measurement": "Vm", "value": "97.0 ± 8.2", "unit": "units/μg"},
      {"measurement": "Vm", "setting": "listed as arachidonoyl-lysoPC", "value": 97.0, "unit": "units/μg"}
    ]}
  ]
}
